{"source": "patent US20160120915A1", "about": "“METHODS FOR MANIPULATING IMMUNE RESPONSES BY ALTERING MICROBIOTA” (NEW YORK UNIVERSITY, priority 2013, published 2016)", "key": {"[1]": {"conditions": "asthma; cited from earlier work"}, "[2]": {"test_system": "terminal ileum", "experiment": "PAT: ileal gene expression profiling by whole genome microarray, 6-week mice", "assay_type": "in vivo, C57BL/6 mice", "conditions": "6-week PAT vs Control, T-test p<0.05 and fold change ≧1.2 or ≦0.8", "method": "Ileal gene expression profiling of STAT, PAT, and control animal groups, was performed using the Affymetrix Genechip system (Affymetrix). Total RNA quality and quantity were determined using the Agilent 2100 Bioanalyser and Nanodrop ND-1000. Total RNA (100 ng) was used to prepare cDNA following the Affymetrix […] Express Kit labelling protocol (Affymetrix). Standardized array processing procedures recommended by Affymetrix were performed, including hybridization, fluidics processing and scanning of the Affymetrix MG-430 2.0 arrays. GeneSpring GX11 software (Agilent Technologies) was used to normalize the raw data (Affymetrix CEL files) by Robust Multichip Average algorithm (RMA).\n1127 and 3065 reproducibly regulated genes were identified from ˜45,000 genes of the mouse genome by T-test (p<0.05) and fold change (≧1.2 or ≦0.8) in 6-week PAT (Panel A; Control vs Amoxicillin and Panel B; Control vs Tylosin), respectively (FIG. 22). DAVID analysis was performed using the regulated genes, and Gene Set Enrichment analysis (GSEA) was performed using whole gene data.\n(C, n=3), amoxicillin (A, n=3), and tylosin treated mice (T, n=3)."}, "[3]": {"test_system": "terminal ileum", "experiment": "PAT: ileal expression by qPCR in 6-week mice", "assay_type": "in vivo, C57BL/6 mice", "conditions": "6-week male mice, 3 pulses, vs control, p<0.05", "method": "Total RNA was extracted from mouse tissues using the RNeasy Mini Kit (Qiagen), according to the manufacturer's instructions. Total RNA was reverse transcribed to cDNA using the Verso™ cDNA Synthesis Kit (Thermo Scientific). To generate standards for expression analysis of each target gene, the cDNA region of interest was PCR-amplified and the PCR product was cloned into pGEM-T easy (Promega). qPCR was performed with LightCycler 480 SYBR Green I Master mix (Roche) and run in a LightCycler 480 system (Roche). Target mRNA was normalized to GAPDH mRNA as an internal control in each sample.\nC57BL/6 mice were fed a standard diet after weaning, and exposed to 3 pulses of therapeutic dose antibiotics (Amoxicillin or Tylosin), or no antibiotics, via their drinking water, all before 6 weeks of age. Mice were sacrificed at 6 weeks of age.\nThe distal ileum (1 cm) without Peyer's Patches was collected from each mouse for RNA extraction and kept in RNAlater (Ambion) overnight at 4° C. Samples were stored at −80° C. until RNA extraction was performed.\nPanel A: Mice were exposed to 3 pulses of antibiotics (Amoxicillin or Tylosin), or no antibiotics, via breast milk or drinking water at the indicated time points. Panel B: Male mice, including 5 Control, 4 Amoxicillin, and 6 Tylosin, were fed a normal diet. They were sacrificed at 6 weeks of age and the terminal[1 cm] ileum without Peyer's Patches [TI-] was collected.\nIleal expression of T-bet and IFN-γ [Th1], GATA3 and IL-4 [Th2], Foxp3, and TGFβ1 [Treg], and RORγt, IL-17A, and IL-17F [Th17] (Control n=5, Amoxicillin n=4, Tylosin n=6) was quantitated with qPCR and normalized by GAPDH expression. Expression of T-bet and IFNγ [Th1] (p<0.05) and IL-17A and IL-17F [Th17] […] Foxp3 and RORγt were lower in Tylosin than control. This example extends the earlier observation that continuous antibiotics affect ileal immune cell populations and effectors by showing that pulses are sufficient to produce similar effects."}}}
{"smiles": "CC[C@H]1OC(=O)[C@H](C)[C@@H](O[C@H]2C[C@@](C)(OC)[C@@H](O)[C@H](C)O2)[C@H](C)[C@@H](O[C@@H]2O[C@H](C)C[C@H](N(C)C)[C@H]2O)[C@](C)(OC)C[C@@H](C)C(=O)[C@H](C)[C@@H](O)[C@]1(C)O", "note": "[clarithromycin]", "values": [{"measurement": "airway hyperresponsives (AHR)", "setting": "[1]", "value": "reduced"}, {"measurement": "neutrophilic inflammation", "setting": "[1]", "value": "reduced"}]}
{"smiles": "CC1(C)S[C@@H]2[C@H](NC(=O)[C@H](N)c3ccc(O)cc3)C(=O)N2[C@H]1C(=O)O", "note": "[Amoxicillin]", "values": [{"measurement": "reproducibly regulated genes out of ~45,000 genes of the mouse genome", "setting": "[2]", "value": 1127}, {"measurement": "ileal expression of IFNγ [Th1]", "setting": "[3]", "value": "significantly lower"}, {"measurement": "ileal expression of IL-17A [Th17]", "setting": "[3]", "value": "significantly lower"}, {"measurement": "ileal expression of IL-17F [Th17]", "setting": "[3]", "value": "significantly lower"}, {"measurement": "ileal expression of T-bet [Th1]", "setting": "[3]", "value": "significantly lower"}]}
